Test results reported in publication PMC6643297 (Cell metabolism, 2018).

Legend:
[1] = molecular target: ACC2 (acetyl-CoA carboxylase 2) (Homo sapiens, UniProt O00763); assay: ACC2 enzyme inhibition assay; assay type: biochemical
[2] = molecular target: ACC1 (acetyl-CoA carboxylase 1) (Homo sapiens, UniProt Q13085); assay: ACC1 enzyme inhibition assay; assay type: biochemical

ACC2 (acetyl-CoA carboxylase 2), sequence (O00763 whole entry): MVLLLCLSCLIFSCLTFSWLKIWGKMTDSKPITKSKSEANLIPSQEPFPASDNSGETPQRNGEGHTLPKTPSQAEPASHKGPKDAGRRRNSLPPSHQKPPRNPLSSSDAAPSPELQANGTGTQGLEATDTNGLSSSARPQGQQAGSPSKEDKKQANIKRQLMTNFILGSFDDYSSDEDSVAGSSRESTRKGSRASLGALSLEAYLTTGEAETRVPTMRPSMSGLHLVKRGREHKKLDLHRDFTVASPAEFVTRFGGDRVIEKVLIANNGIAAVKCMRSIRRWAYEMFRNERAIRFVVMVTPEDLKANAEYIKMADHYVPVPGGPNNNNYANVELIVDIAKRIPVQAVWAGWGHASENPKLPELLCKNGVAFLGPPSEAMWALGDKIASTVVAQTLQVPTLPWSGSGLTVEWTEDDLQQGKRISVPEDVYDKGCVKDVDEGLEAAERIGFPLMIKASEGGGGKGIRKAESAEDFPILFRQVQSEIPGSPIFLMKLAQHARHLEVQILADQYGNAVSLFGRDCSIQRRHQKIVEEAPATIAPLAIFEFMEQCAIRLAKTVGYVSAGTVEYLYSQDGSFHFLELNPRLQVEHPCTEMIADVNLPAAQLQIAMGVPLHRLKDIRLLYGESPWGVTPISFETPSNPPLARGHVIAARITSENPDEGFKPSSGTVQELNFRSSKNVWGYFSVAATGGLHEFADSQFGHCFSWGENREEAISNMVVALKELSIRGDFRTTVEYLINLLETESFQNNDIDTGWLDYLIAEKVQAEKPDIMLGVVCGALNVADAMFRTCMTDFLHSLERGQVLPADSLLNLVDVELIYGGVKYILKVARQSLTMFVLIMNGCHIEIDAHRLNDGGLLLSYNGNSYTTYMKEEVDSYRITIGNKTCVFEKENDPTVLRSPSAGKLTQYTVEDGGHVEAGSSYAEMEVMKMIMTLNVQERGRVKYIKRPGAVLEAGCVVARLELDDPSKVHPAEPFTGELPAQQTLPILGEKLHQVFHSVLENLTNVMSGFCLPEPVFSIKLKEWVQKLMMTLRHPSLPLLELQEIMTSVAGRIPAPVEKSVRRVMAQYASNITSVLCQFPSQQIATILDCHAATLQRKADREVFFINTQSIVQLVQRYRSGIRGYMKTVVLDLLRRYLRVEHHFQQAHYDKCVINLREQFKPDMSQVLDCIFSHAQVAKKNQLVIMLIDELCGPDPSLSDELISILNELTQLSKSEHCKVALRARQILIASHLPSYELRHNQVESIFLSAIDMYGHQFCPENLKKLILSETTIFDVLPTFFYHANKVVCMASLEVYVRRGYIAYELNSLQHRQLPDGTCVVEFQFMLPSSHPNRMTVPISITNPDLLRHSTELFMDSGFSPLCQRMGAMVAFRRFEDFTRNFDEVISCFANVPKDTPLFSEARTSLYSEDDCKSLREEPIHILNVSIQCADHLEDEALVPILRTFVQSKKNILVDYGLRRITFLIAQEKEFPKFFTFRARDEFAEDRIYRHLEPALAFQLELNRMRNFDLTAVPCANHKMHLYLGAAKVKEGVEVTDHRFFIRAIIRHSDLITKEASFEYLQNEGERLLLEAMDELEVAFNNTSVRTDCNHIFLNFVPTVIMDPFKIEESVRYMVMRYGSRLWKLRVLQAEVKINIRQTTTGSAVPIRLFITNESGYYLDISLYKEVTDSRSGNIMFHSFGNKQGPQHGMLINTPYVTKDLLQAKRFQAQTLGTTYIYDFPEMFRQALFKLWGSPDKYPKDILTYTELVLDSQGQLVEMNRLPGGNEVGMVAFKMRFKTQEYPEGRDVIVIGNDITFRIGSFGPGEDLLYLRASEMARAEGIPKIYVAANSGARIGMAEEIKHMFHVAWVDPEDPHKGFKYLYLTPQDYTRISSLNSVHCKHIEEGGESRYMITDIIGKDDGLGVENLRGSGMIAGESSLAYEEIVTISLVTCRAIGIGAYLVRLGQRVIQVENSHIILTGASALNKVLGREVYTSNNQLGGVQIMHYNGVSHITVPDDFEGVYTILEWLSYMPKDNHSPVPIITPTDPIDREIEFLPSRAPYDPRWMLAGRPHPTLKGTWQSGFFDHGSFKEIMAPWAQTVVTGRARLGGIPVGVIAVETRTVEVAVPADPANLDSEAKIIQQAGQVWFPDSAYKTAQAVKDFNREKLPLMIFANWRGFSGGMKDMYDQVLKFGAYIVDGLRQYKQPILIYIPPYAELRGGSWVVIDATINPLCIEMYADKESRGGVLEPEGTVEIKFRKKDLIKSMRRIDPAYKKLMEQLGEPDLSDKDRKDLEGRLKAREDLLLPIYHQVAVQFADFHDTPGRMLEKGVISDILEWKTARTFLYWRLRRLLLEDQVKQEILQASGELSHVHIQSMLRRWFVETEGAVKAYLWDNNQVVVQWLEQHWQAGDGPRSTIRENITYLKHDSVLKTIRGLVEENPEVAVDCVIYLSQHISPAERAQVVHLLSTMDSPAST

For ND-654, which IC50 [1] is on record?
The IC50 was 8 nM.

And the IC50 [2]?
Its IC50 is 3 nM.
